Results as given in PMC12281424, “A Rac-specific competitive inhibitor of guanine nucleotide binding reduces metastasis in triple-negative breast cancer” (Cell Reports Medicine, 2025).

How the values were obtained:
CDC42 = CDC42 (Homo sapiens, UniProt P60953); test: Surface plasmon resonance; assay type: binding; set-up: purchased Cytoskeleton CD01; settings: A41 0 to 25 μM
Experimental: SPR immobilization was performed at 25°C. RAC1, RHOA and CDC42 purified proteins (respectively […] and CD01, Cytoskeleton) were diluted to 5 μg/mL in Na^+ acetate buffer (pH 5.0) and injected into sensor chip CM5 (GE Healthcare) in a Biacore T200 (GE Healthcare) that was activated with NHS/EDC buffer. Approximately 5,000 response units of the purified protein were immobilized on the biosensor chip. Biosensor chips were blocked by an injection of 1 mM ethanolamine (pH 8.5). SPR analysis was performed at 25°C in HBSEP running buffer (5% DMSO) with or without EDTA (20 mM). A41 compound was injected over the RAC1, RHOA or CDC42 functionalized surface in concentration range from 0 to 25μM. Association and dissociation phases were monitored during 60s and 300s, respectively.

CDK3/cyclinE(h) = CDK3/cyclinE(h) (Homo sapiens, UniProt Q00526); test: Kinase Profiler; assay type: biochemical
Experimental: (§1) Blood cell counts, kinase profiler, safety screen, bacterial cytotoxicity, Ames, micronucleus assays were performed by the company Eurofins (France). The kinase profiler was performed by the company Eurofins (Discovery, Panlab and Cerep).

Dopamine D2S = Dopamine D2S (Homo sapiens, UniProt P14416); test: Safety screen; assay type: binding
Experimental: (§2) Blood cell counts, kinase profiler, safety screen, bacterial cytotoxicity, Ames, micronucleus assays were performed by the company Eurofins (France).

[1] = target: Cholecystokinin CCK2 (CCKB) (Homo sapiens, UniProt P32239); test: Safety screen; assay type: binding
Chain of Cholecystokinin CCK2 (CCKB) (P32239 whole entry): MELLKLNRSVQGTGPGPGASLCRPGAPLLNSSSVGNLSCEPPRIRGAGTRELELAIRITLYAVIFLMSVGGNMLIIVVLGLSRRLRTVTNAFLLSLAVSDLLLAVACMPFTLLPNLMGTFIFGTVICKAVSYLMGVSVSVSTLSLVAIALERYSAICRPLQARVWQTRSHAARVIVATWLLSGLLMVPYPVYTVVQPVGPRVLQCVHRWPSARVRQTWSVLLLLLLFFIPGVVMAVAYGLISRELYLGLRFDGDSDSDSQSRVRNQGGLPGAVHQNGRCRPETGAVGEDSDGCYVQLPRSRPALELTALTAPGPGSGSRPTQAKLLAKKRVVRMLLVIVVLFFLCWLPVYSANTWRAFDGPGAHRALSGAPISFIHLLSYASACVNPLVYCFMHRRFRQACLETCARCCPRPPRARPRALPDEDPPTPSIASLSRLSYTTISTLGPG
Experimental: as §2

PKCε(h) = PKCε(h) (Homo sapiens, UniProt Q02156); test: Kinase Profiler; assay type: biochemical
Experimental: (§3) The kinase profiler was performed by the company Eurofins (Discovery, Panlab and Cerep).

CaMKIγ(h) = CaMKIγ(h) (Homo sapiens, UniProt Q96NX5); test: Kinase Profiler; assay type: biochemical
Chain of CaMKIγ(h) (Q96NX5 whole entry): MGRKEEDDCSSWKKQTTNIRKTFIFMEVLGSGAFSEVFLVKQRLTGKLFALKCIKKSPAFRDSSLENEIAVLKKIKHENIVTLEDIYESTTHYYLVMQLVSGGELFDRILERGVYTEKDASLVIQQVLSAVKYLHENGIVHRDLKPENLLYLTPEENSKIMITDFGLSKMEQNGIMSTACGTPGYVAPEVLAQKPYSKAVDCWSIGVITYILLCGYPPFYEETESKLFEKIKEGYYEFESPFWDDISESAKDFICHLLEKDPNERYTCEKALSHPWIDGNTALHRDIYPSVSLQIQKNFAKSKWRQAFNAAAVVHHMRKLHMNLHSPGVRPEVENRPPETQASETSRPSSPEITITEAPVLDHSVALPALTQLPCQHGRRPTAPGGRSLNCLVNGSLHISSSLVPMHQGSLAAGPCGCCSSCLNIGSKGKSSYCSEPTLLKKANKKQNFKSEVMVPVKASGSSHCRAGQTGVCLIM
Experimental: as §3

Met(h) = Met(h) (Homo sapiens, UniProt P08581); test: Kinase Profiler; assay type: biochemical
Chain of Met(h) (P08581 25-1390): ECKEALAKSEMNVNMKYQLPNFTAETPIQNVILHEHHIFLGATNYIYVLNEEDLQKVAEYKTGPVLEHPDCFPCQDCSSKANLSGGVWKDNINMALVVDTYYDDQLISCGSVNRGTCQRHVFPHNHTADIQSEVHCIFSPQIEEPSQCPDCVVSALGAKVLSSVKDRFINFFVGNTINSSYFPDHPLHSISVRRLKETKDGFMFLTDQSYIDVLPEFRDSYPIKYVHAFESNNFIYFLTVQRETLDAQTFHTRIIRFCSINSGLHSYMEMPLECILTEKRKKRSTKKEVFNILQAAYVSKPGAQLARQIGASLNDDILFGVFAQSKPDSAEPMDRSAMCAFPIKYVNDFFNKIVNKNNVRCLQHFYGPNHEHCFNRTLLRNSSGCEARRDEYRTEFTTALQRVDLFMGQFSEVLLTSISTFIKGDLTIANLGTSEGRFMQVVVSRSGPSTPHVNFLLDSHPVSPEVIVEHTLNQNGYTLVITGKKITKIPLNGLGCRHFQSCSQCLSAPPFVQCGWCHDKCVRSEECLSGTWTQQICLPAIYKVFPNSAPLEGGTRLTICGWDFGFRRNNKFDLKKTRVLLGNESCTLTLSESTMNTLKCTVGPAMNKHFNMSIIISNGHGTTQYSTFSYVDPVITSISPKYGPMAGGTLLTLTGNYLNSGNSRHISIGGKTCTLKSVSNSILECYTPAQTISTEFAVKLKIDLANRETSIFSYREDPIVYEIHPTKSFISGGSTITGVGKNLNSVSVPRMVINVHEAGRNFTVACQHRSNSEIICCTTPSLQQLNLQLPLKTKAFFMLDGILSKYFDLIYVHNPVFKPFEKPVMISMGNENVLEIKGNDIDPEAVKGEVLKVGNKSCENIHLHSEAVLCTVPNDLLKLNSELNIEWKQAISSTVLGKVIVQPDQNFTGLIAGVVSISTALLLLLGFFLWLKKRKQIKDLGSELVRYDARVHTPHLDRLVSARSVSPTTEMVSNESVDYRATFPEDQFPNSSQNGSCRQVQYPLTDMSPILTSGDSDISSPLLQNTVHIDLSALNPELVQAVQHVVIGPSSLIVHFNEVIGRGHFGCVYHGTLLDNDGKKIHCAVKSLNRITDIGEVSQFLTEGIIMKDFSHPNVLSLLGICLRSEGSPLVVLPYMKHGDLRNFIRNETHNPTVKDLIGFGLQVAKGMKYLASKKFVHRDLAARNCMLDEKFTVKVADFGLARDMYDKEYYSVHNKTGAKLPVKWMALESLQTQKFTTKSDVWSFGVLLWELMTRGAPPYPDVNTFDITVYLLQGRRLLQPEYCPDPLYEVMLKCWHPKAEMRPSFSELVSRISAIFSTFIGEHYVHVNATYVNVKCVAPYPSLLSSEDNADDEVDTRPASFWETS
Experimental: as §3

Dopamine D2L = Dopamine D2L (Homo sapiens, UniProt P14416); test: Safety screen; assay type: binding
Experimental: as §2

[2] = test system: RAC1-dependent membrane ruffle formation in NIH 3T3 cells; test: EGF-induced membrane ruffle formation; assay type: cell-based; settings: EGF 10 ng/mL, inhibitors added 1 h prior; read-out: IC50, inhibition of ruffles formation
Experimental: Figure 2 Identification of a new RAC1 inhibitor (A) Effect of A41 and NSC23766 on ruffle formation (white arrows) induced by EGF (10 ng/mL) in NIH 3T3 cells in serum-free culture medium (CTL). Inhibitors were added at indicated concentration 1 h prior to EGF stimulation. To assess cytoskeleton organization, cells were incubated with Alexa Fluor 488 phalloidin to visualize F-actin. Results shown are representative of 3 independent experiments. Corresponding concentration-response curves have been established by counting the percentages of cells with ruffles (scale bars: 10 μm). (B) Immunoblot analysis and associated quantification of RAC-GTP level and total RAC expression in NIH 3T3 cells stimulated by EGF (10 ng/mL, 5 min) and pre-incubated or not (−) with NSC23766, A41, or A415 at 10^−5 M for 1 h (∗∗∗p < 0.001 vs. controls without EGF stimulation, ^###p < 0.001 vs. controls with EGF stimulation) (N > 3). […] (D) Representative in vitro nucleotide exchange catalyzed by the DH-PH of TIAM (10 nM) measured by the binding of fluorescent mant-GTP (1 μM) to RAC1 (0.5 μM, preloaded with GDP) in the presence of indicated concentrations of A41 (out of N = 6). […] (E) Kobs and Kmax were determined in each condition (N = 6). […]
After indicated treatments, cells were fixed with 4% paraformaldehyde and permeabilized in PBS 0.5% Triton X-100. […] Cancer cells were detected with firefly luciferase antibody (ab21176, Abcam) (dilution 1/500) overnight at room temperature, followed by secondary Alexa 488-labeled anti-rabbit antibody (dilution 1/1000). […] After staining, cells were mounted in Prolong gold antifade reagent with DAPI and images were captured by a fluorescence microscope. […]
Supp. […] For each molecule, druglikeness has been assessed according to Lipinski’s rules: molecular weight (MW)<500; high lipophilicity (LogP<5); less than 5 hydrogen bond donors (HBD); less than 10 hydrogen bond acceptors (HBA). The log P was calculated by using OSIRIS – Data Warrior software. […] IC50 was determined experimentally from the inhibition

IKKα(h) = IKKα(h) (Homo sapiens, UniProt O15111); test: Kinase Profiler; assay type: biochemical
Chain of IKKα(h) (O15111 whole entry): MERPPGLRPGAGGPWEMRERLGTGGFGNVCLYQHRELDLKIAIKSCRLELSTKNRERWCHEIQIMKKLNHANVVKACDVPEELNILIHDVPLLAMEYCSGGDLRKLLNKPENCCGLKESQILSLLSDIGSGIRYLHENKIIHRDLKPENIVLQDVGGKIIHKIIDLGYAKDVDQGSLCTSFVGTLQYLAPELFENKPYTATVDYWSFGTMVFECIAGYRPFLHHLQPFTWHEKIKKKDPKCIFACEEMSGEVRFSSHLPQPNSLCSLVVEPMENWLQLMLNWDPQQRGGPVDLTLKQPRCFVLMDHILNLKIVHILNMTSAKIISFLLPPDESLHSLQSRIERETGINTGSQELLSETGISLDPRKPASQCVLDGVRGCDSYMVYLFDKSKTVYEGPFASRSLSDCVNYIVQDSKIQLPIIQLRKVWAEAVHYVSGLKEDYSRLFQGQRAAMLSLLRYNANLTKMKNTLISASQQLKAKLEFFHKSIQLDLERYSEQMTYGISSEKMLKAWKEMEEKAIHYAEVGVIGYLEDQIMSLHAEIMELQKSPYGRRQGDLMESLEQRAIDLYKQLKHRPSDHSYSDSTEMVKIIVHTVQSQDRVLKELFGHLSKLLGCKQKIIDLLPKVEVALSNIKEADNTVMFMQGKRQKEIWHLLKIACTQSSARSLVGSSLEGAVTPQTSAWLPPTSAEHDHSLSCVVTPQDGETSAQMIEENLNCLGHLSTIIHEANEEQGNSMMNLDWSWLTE
Experimental: as §1

Chemokine CXCR2 (IL-8RB) = Chemokine CXCR2 (IL-8RB) (Homo sapiens, UniProt P25025); test: Safety screen; assay type: binding
Chain of Chemokine CXCR2 (IL-8RB) (P25025 whole entry): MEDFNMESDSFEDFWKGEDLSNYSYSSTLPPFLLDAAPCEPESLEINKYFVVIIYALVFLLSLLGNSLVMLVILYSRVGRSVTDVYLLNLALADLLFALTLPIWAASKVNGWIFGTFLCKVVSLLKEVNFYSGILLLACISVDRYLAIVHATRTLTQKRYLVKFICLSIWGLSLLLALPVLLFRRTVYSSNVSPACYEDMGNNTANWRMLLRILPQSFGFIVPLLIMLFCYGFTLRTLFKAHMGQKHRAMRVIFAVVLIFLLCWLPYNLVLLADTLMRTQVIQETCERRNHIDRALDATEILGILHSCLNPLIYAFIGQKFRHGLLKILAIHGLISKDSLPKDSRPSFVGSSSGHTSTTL
Experimental: as §2

PKCη(h) = PKCη(h) (Homo sapiens, UniProt P24723); test: Kinase Profiler; assay type: biochemical
Chain of PKCη(h) (P24723 whole entry): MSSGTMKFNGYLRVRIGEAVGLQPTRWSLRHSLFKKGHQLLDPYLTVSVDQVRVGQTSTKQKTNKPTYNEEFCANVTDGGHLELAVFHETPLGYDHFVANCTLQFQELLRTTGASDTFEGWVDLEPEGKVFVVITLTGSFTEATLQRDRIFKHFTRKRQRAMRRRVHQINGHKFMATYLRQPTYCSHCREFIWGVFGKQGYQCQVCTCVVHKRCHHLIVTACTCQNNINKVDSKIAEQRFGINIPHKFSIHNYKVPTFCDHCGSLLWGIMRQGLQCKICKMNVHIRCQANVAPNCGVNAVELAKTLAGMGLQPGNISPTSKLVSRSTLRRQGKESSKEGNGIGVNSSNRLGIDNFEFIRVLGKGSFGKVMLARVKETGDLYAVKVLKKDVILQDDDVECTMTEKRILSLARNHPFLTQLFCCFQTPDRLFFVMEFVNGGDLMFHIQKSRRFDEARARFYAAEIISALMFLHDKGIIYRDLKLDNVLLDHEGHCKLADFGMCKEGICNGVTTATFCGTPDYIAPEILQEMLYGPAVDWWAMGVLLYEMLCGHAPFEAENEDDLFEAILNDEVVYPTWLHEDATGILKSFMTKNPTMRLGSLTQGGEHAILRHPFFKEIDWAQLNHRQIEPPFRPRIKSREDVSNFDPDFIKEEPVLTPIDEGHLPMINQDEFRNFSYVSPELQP
Experimental: as §3

AAK1(h) = AAK1(h) (Homo sapiens, UniProt Q2M2I8); test: Kinase Profiler; assay type: biochemical
Chain of AAK1(h) (Q2M2I8 whole entry): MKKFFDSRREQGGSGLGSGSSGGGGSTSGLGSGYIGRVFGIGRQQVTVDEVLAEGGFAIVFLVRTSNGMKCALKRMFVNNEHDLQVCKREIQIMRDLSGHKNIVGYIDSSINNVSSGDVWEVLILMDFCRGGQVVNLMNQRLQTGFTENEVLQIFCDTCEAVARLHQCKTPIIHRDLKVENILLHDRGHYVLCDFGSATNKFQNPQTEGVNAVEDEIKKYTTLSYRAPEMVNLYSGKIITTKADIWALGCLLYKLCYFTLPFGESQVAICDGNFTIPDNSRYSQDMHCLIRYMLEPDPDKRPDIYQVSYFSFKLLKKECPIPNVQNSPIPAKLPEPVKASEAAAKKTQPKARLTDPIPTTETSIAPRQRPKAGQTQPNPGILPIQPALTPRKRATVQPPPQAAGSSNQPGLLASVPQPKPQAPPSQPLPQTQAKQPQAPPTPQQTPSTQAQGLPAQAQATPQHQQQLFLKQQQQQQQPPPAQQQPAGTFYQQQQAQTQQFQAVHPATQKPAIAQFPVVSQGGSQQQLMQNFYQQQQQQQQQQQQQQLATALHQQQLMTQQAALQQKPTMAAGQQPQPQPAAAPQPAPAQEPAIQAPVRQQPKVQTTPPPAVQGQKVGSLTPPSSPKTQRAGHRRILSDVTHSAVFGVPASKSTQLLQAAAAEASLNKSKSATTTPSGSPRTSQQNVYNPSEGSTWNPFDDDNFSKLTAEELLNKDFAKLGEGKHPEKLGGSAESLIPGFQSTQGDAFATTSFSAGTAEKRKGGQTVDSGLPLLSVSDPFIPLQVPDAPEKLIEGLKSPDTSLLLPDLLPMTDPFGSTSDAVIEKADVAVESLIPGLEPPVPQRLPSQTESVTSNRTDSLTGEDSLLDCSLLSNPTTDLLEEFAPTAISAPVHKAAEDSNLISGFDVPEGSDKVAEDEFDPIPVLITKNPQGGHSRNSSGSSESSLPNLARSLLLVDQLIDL
Experimental: as §3

## COc1ccc(OC)c(NS(=O)(=O)c2ccc(NC(=O)CCSc3ccc(C)cc3)cc2)c1 [Compound A41]
CDC42
  binding: No binding was measured
CDK3/cyclinE(h)
  Activity(%): 77%
Dopamine D2S
  % inh.: 35%
[1]
  % inh.: 0%
PKCε(h)
  Activity(%): 102%
CaMKIγ(h)
  Activity(%): 121%
Met(h)
  Activity(%): 88%
Dopamine D2L
  % inh.: 9%
[2]
  IC50: 2.5 nM
IKKα(h)
  Activity(%): 107%
Chemokine CXCR2 (IL-8RB)
  % inh.: 1%
PKCη(h)
  Activity(%): 118%
AAK1(h)
  Activity(%): 105%
